{
  "source": "patent US20150023953A1",
  "about": "“METHOD OF TREATING CANCER” (priority 2012, published 2015)",
  "key": {"[1]": {"tested_on": "HER2+ MBC patients with recurrent brain metastases", "experiment": "Clinical Trial I: pharmacogenetic association of germline SNPs with PFS/OS during lapatinib monotherapy", "type": "in vivo, human", "text": "Candidate genes for this experiment are listed below.\nCox proportional hazards model with Firth method.\n(GWAS, 1M Genome-Wide SNPs (Illumina human 1M duo)). […] Examined genes were divided into three tiers as follows: […]"}, "HER2+ MBC patients": {"tested_on": "HER2+ MBC patients", "experiment": "Meta-analysis and GWAS across Trial I and Trial II study-treatment arms", "type": "in vivo, human", "conditions": "across the trials or study arms", "text": "(GWAS, 1M Genome-Wide SNPs (Illumina human 1M duo)). […] Examined genes were divided into three tiers as follows:\n• GWAS SNPs: Bonferroni threshold for significance p=0.05/1M=5×10-8"}, "[2]": {"tested_on": "HER2+ MBC patients with disease progression following trastuzumab", "conditions": "Trial II", "experimental": "Fifty five single nucleotide polymorphisms (SNPs) with functional consequence in 24 candidate genes were evaluated. The assay platform used to genotype these SNPs was the Illumina Human 1M-Duo BeadChip.\nStatistical analysis of genetic associations were evaluated using an additive test. For any significant marker identified from the additive test, specific contrasts of interest between different genotypes will be explored to determine risk genotype(s). Cox proportional hazards model with Firth method. Any covariate significant at p≦0.05 in the multivariate Cox model will be included.\nTesting for associations of SNPs with progression free survival (PFS) and overall survival (OS) during lapatinib treatment was performed using Cox proportional hazards methods, with covariate adjustment.\nAssociations were evaluated using an additive genetic test, using a multivariate Cox proportional hazards model adjusting for significant clinical covariates and race/ethnicity difference. […] The primary endpoints was Progression Free Survival (PFS), where the secondary endpoint was Overall Survival (OS). […] Variants were assigned to tiers for analysis, with different association significance thresholds and these were specified prior to analysis to adjust for number of SNP tests, but not for number of endpoints and groups, as follows: • Candidate genes:"}, "ABCB1 (P-GP)": {"target": "ABCB1 (P-GP) (Homo sapiens, UniProt P08183)", "sequence (P08183 whole entry)": "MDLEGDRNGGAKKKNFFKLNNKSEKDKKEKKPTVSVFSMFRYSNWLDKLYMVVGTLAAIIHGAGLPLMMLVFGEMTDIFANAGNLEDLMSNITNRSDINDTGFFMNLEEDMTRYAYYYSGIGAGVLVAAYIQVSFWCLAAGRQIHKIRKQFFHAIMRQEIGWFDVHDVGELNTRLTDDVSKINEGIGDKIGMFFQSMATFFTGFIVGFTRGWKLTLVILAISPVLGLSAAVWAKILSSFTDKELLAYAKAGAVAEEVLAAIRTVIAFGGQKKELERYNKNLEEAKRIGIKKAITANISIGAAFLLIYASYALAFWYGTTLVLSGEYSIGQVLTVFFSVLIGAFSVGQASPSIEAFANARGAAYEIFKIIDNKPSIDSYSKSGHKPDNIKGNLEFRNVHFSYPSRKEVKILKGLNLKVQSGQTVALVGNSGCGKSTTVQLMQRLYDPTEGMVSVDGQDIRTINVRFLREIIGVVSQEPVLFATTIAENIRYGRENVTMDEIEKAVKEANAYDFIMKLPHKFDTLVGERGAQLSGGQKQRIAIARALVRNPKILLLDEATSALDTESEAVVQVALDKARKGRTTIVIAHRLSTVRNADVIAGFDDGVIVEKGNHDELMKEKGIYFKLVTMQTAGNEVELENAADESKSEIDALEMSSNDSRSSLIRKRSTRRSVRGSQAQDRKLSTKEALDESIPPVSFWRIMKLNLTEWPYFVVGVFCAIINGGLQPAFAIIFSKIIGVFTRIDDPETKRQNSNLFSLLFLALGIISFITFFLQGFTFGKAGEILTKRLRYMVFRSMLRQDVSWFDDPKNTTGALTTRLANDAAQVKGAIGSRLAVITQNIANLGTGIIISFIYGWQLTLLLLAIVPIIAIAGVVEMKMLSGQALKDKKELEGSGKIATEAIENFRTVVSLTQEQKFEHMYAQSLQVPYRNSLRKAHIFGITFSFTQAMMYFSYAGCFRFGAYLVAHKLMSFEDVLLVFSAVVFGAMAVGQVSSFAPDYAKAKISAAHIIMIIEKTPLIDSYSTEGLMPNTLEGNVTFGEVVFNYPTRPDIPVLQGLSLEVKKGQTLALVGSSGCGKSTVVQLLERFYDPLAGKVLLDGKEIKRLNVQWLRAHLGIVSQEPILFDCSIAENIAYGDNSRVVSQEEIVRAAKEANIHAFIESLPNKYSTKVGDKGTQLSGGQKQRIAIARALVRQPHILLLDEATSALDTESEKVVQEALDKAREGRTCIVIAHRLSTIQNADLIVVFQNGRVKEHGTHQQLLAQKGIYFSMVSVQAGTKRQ", "conditions": "cited from earlier work"}, "ABCG2 (BCRP)": {"target": "T1, ABCG2 (BCRP) (Homo sapiens, UniProt Q9UNQ0)", "T1 sequence (Q9UNQ0 1-655)": "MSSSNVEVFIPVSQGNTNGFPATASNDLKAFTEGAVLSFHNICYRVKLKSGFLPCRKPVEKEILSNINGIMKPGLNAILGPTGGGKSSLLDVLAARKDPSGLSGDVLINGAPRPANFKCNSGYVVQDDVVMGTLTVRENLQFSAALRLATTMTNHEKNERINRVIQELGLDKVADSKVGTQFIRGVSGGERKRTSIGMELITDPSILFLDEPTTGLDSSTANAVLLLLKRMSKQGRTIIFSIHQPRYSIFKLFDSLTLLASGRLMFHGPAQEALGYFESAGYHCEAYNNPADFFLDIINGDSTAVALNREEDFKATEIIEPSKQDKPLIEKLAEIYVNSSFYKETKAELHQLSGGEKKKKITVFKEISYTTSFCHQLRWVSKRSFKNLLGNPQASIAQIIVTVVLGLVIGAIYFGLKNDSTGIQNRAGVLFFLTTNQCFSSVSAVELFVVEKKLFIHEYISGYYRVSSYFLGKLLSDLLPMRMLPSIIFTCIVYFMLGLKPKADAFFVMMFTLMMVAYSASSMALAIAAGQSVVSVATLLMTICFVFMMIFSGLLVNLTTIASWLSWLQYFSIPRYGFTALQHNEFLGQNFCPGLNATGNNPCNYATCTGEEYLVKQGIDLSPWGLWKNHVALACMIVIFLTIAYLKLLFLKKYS", "conditions": "cited from earlier work"}, "CYP3A4": {"target": "CYP3A4 (Homo sapiens, UniProt P08684)", "sequence (P08684 whole entry)": "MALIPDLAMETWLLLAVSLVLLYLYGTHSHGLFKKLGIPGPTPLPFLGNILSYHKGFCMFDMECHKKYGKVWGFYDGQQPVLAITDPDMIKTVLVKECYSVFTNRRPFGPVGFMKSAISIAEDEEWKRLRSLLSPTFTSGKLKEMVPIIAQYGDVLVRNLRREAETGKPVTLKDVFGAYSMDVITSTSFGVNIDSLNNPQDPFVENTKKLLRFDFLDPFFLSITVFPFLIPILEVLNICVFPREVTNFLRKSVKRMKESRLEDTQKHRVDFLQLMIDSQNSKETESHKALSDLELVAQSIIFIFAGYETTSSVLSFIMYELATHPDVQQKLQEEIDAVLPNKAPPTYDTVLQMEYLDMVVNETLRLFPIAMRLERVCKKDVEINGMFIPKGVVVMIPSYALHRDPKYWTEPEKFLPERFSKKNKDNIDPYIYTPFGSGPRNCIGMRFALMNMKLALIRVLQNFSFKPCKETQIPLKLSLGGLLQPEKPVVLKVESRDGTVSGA", "conditions": "cited from earlier work"}},
  "data": [
    {"smiles": "CS(=O)(=O)CCNCc1ccc(-c2ccc3ncnc(Nc4ccc(OCc5cccc(F)c5)c(Cl)c4)c3c2)o1", "note": "[lapatinib, N-(3-chloro-4-{[(3-fluorophenyl)methyl]oxy}phenyl)-6-[5-({[2-(methylsulfonyl)ethyl]amino}methyl)-2-furanyl]-4-quinazolinamine]", "values": [
      {"measurement": "association of VEGFR2 rs1870377 18487A>T with OS", "setting": "[1]", "result": "not seen"},
      {"measurement": "association of SNPs with progression-free survival (PFS)", "setting": "[1]; 55 SNPs in 24 candidate genes", "result": "No SNPs were statistically significantly associated"},
      {"measurement": "allelic hazard ratio for overall survival (OS), VEGFA rs3025039 936C>T", "setting": "[1]; lapatinib monotherapy, improved OS for T allele carriers, range in brackets", "result": "0.21 (0.08-0.52)"},
      {"measurement": "GWAS signals (p<5×10-8) with common markers (MAF>5%)", "setting": "HER2+ MBC patients", "result": "no strong signals"},
      {"measurement": "association of VEGFA rs3025039 936C>T with OS", "setting": "[2]", "result": "not seen"},
      {"measurement": "association of SNPs with progression-free survival (PFS)", "setting": "[2]; 55 SNPs in 24 candidate genes", "result": "No SNPs were statistically significantly associated"},
      {"measurement": "allelic hazard ratio for OS, VEGFR2 rs1870377 18487A>T Q472H", "setting": "[2]; T allele carriers showing improved OS, range in brackets", "result": "0.47 (0.3-0.73)"},
      {"measurement": "allelic hazard ratio for OS, carriage of either IGFR1 minor allele (rs2037448 or rs7181022) vs wild type", "setting": "[2]; carriers have poorer OS, range in brackets", "result": "5.0 (2.2-10.0)"},
      {"measurement": "substrate status", "setting": "ABCB1 (P-GP)", "result": "(P-GP) lapatinib is substrate"},
      {"measurement": "substrate status", "setting": "ABCG2 (BCRP)", "result": "(BCRP) lapatinib is substrate"},
      {"measurement": "inhibitor status", "setting": "CYP3A4", "result": "inhibitor"},
      {"measurement": "substrate status", "setting": "CYP3A4", "result": "substrate"}
    ]}
  ]
}
